US20260317324A1, “BIFUNCTIONAL COMPOUNDS FOR DEGRADING BRAF VIA UBIQUITIN PROTEOSOME PATHWAY” (Nurix Therapeutics, Inc., priority 2023, published 2026)

Target: T1, BRAF V600E (Homo sapiens, UniProt P15056, V600E)
T1 construct: endogenous C-terminal HiBiT fusion tag on BRAF V600E allele; endogenous in cells; host or cells: A375 clone 1F10 (CRISPR-Cas9 knock-in of the HiBiT tag; parental A375 from ATCC)
Assay: BRAF HiBiT degradation assay, C-terminal HiBiT-tagged BRAF V600E A375 cells (clone 1F10), Nano-Glo HiBiT Lytic assay
Assay type: cell-based
Settings: A375 (BRAF V600E); for DC50: DC50 at 50%: fitted conc. at Y=50; for Dmax: A-375, percentage protein degraded at maximal compound effect relative to DMSO
Method in brief: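 A375 cells (clone 1F10, endogenous C-terminal HiBiT on BRAF V600E) were seeded at 10,000 cells/well, grown 24 h, then dosed in duplicate with an 11-point series from 1 μM to 0.01 nM (0.2% DMSO). Nano-Glo HiBiT lytic luminescence was normalised to DMSO and wildtype-A375 background; DC50 was read at 50% protein remaining, alongside observed Dmax.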

T1 sequence (P15056 whole entry V600E, the tested form may be a part): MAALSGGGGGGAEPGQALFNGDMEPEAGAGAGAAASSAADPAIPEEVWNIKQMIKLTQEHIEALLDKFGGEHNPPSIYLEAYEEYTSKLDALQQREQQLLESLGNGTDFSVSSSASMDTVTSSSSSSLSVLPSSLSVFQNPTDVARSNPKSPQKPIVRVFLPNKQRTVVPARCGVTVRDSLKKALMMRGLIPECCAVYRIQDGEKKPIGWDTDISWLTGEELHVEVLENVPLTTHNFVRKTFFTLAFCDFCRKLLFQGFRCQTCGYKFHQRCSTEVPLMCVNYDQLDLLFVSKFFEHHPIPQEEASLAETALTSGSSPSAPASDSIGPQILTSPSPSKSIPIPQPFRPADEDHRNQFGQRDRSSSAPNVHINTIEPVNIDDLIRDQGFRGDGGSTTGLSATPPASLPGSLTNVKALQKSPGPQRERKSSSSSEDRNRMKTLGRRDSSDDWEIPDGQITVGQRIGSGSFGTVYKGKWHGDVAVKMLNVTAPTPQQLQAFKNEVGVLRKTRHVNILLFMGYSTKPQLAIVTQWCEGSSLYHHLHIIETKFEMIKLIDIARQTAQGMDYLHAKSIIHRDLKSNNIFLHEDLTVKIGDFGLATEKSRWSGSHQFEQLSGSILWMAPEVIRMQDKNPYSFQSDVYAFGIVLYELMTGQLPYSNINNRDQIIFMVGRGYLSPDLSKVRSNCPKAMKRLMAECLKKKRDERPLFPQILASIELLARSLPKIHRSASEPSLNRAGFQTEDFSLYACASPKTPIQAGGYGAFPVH

| Structure (SMILES) | DC50 | Dmax |
| --- | --- | --- |
| CCCS(=O)(=O)Nc1cccc(-c2nc(-c3ccc(C4CCN(C(=O)C5CCN(c6ccc(C7CCC(=O)NC7=O)cn6)CC5)CC4)cc3)sc2-c2ccnc(N)n2)c1F (racemic) [Compound 201, Rac-N-{3-[5-(2-aminopyrimidin-4-yl)-2-{4-[1-(1-{5-[(3R)-2,6-dioxopiperidin-3-yl]pyridin-2-yl}piperidine-4-carbonyl)piperidin-4-yl]phenyl}-1,3-thiazol-4-yl]-2-fluorophenyl}propane-1-sulfonamide] | 10 to 50 nM | 30 to 70% |
| CCCS(=O)(=O)Nc1cccc(-c2nc(C3CCN(CC4CCN(C(=O)CC5CCN(c6ccc(C7CCC(=O)NC7=O)cn6)CC5)CC4)CC3)sc2-c2ccnc(N)n2)c1F (racemic) [Compound 202, Rac-N-{3-[5-(2-aminopyrimidin-4-yl)-2-[1-({1-[2-(1-{5-[(3R)-2,6-dioxopiperidin-3-yl]pyridin-2-yl}piperidin-4-yl)acetyl]piperidin-4-yl}methyl)piperidin-4-yl]-1,3-thiazol-4-yl]-2-fluorophenyl}propane-1-sulfonamide] | < 10 nM | > 70% |
| CCCS(=O)(=O)Nc1cccc(-c2nc(C3CCN(CC4CCN(C(=O)C5CCN(c6ccc(C7CCC(=O)NC7=O)cn6)CC5)CC4)CC3)sc2-c2ccnc(N)n2)c1F (racemic) [Compound 213, Rac-N-{3-[5-(2-aminopyrimidin-4-yl)-2-(1-{[1-(1-{5-[(3R)-2,6-dioxopiperidin-3-yl]pyridin-2-yl}piperidine-4-carbonyl)piperidin-4-yl]methyl}piperidin-4-yl)-1,3-thiazol-4-yl]-2-fluorophenyl}propane-1-sulfonamide] | < 10 nM | > 70% |
| CCCS(=O)(=O)Nc1cccc(-c2nc(C3CCN(C4CN(C(=O)CC5(O)CCN(c6ccc(NC7CCC(=O)NC7=O)cc6F)CC5)C4)CC3)sc2-c2ccnc(N)n2)c1F (racemic) [Compound 214, Rac-N-{3-[5-(2-aminopyrimidin-4-yl)-2-[1-(1-{2-[1-(4-{[(3R)-2,6-dioxopiperidin-3-yl]amino}-2-fluorophenyl)-4-hydroxypiperidin-4-yl]acetyl}azetidin-3-yl)piperidin-4-yl]-1,3-thiazol-4-yl]-2-fluorophenyl}propane-1-sulfonamide] | 10 to 50 nM | 30 to 70% |
| CCCS(=O)(=O)Nc1cccc(-c2nc(C3CCN(C(=O)C4CCN(C(=O)C5CCN(c6ccc(C7CCC(=O)NC7=O)cc6)CC5)CC4)CC3)sc2-c2ccnc(N)n2)c1F (racemic) [Compound 216, Rac-N-{3-[5-(2-aminopyrimidin-4-yl)-2-{1-[1-(1-{4-[(3R)-2,6-dioxopiperidin-3-yl]phenyl}piperidine-4-carbonyl)piperidine-4-carbonyl]piperidin-4-yl}-1,3-thiazol-4-yl]-2-fluorophenyl}propane-1-sulfonamide] | < 10 nM | > 70% |
| CCCS(=O)(=O)Nc1cccc(-c2nc(C3(C)CCN(C(=O)C4CCN(CC5CCN(c6ccc(C7CCC(=O)NC7=O)cn6)CC5)CC4)CC3)sc2-c2ccnc(N)n2)c1F (racemic) [Compound 218, Rac-N-{3-[5-(2-aminopyrimidin-4-yl)-2-(1-{1-[(1-{5-[(3R)-2,6-dioxopiperidin-3-yl]pyridin-2-yl}piperidin-4-yl)methyl]piperidine-4-carbonyl}-4-methylpiperidin-4-yl)-1,3-thiazol-4-yl]-2-fluorophenyl}propane-1-sulfonamide] | 50 to 500 nM | > 70% |
| CCCS(=O)(=O)Nc1cccc(-c2nc(C3CCN(C(=O)[C@H]4CC[C@H](CN5CCc6cc(C7CCC(=O)NC7=O)ccc6C5)CC4)CC3)sc2-c2ccnc(N)n2)c1F (mixture of isomers) [Compound 222, N-{3-[5-(2-aminopyrimidin-4-yl)-2-{1-[(1r,4r)-4-({6-[(3RS)-2,6-dioxopiperidin-3-yl]-1,2,3,4-tetrahydroisoquinolin-2-yl}methyl)cyclohexanecarbonyl]piperidin-4-yl}-1,3-thiazol-4-yl]-2-fluorophenyl}propane-1-sulfonamide] | > 500 nM | 30 to 70% |
| CCCS(=O)(=O)Nc1cccc(-c2nc(C3CCN(CC4CCN(C(=O)[C@H]5CC[C@H](Oc6cccc(C7CCC(=O)NC7=O)c6)CC5)CC4)CC3)sc2-c2ccnc(N)n2)c1F (mixture of isomers) [Compound 223, N-{3-[5-(2-aminopyrimidin-4-yl)-2-[1-({1-[(1r,4r)-4-{3-[(3RS)-2,6-dioxopiperidin-3-yl]phenoxy}cyclohexanecarbonyl]piperidin-4-yl}methyl)piperidin-4-yl]-1,3-thiazol-4-yl]-2-fluorophenyl}propane-1-sulfonamide] | 50 to 500 nM | 30 to 70% |
| CCCS(=O)(=O)Nc1cccc(-c2nc(C3CCN(CC4CCN(C(=O)CN5CCc6cc(C7CCC(=O)NC7=O)ccc6C5)CC4)CC3)sc2-c2ccnc(N)n2)c1F (racemic) [Compound 226, Rac-N-{3-[5-(2-aminopyrimidin-4-yl)-2-(1-{[1-(2-{6-[(3R)-2,6-dioxopiperidin-3-yl]-1,2,3,4-tetrahydroisoquinolin-2-yl}acetyl)piperidin-4-yl]methyl}piperidin-4-yl)-1,3-thiazol-4-yl]-2-fluorophenyl}propane-1-sulfonamide] | 50 to 500 nM | 30 to 70% |
| CCCS(=O)(=O)Nc1cccc(-c2nc(C3CCN(C(=O)C4CCN(CC5CCN(c6ccc(C7CCC(=O)NC7=O)cc6)CC5)CC4)CC3)sc2-c2ccnc(N)n2)c1F (racemic) [Compound 228, Rac-N-{3-[5-(2-aminopyrimidin-4-yl)-2-(1-{1-[(1-{4-[(3R)-2,6-dioxopiperidin-3-yl]phenyl}piperidin-4-yl)methyl]piperidine-4-carbonyl}piperidin-4-yl)-1,3-thiazol-4-yl]-2-fluorophenyl}propane-1-sulfonamide] | < 10 nM | > 70% |
| CCCS(=O)(=O)Nc1cccc(-c2nc(C3CCC4(CC3)CCN(C(=O)CN3CCN(CCCc5cccc6c5C(=O)N(C5CCC(=O)NC5=O)C6=O)CC3)CC4)sc2-c2ccnc(N)n2)c1F (racemic) [Compound 229, Rac-N-{3-[5-(2-aminopyrimidin-4-yl)-2-(3-{2-[4-(3-{2-[(3R)-2,6-dioxopiperidin-3-yl]-1,3-dioxo-2,3-dihydro-1H-isoindol-4-yl}propyl)piperazin-1-yl]acetyl}-3-azaspiro[5.5]undecan-9-yl)-1,3-thiazol-4-yl]-2-fluorophenyl}propane-1-sulfonamide] | > 500 nM | 30 to 70% |
| CCCS(=O)(=O)Nc1cccc(-c2nc(C3CCC4(CC3)CN(C(=O)CN3CCN(c5ccc6c(c5)C(=O)N(C5CCC(=O)NC5=O)C6=O)CC3)C4)sc2-c2ccnc(N)n2)c1F (racemic) [Compound 230, Rac-N-{3-[5-(2-aminopyrimidin-4-yl)-2-{2-[2-(4-{2-[(3R)-2,6-dioxopiperidin-3-yl]-1,3-dioxo-2,3-dihydro-1H-isoindol-5-yl}piperazin-1-yl)acetyl]-2-azaspiro[3.5]nonan-7-yl}-1,3-thiazol-4-yl]-2-fluorophenyl}propane-1-sulfonamide] | < 10 nM | 30 to 70% |
